Molecular target: BaF3 V617F cells (Homo sapiens, UniProt O60674, V617F, cells depend on it)
Test: Proliferation assay, BaF3 V617F cells (Cell Titer-Glo)
Type: cell-based, mouse
Details: proliferation for 72 hours at 37° C., stated to show ability to inhibit JAK2 activity, read-out: IC50 (the source's name)
Protocol: BaF3 V617F cells are maintained and plated in RPMI with 10% FBS. Plating density for these cells is 1×10^5 cells/mL.
The cells were resuspended in a corresponding medium at a required cell density (see above). 100μ of cell suspension was added to each well of a flat bottom 96 well white plate. The compound was serially diluted in DMSO from 5 mM in 3-fold dilutions, and then diluted 1:250 in the RPMI 1640 medium containing 5% FBS and pen/strep. 100 μL of resulting 2× compound solution was added per well in duplicate and the cells were allowed to proliferate for 72 hours at 37° C.
Proliferation was measured using Cell Titer-Glo. The substrate was thawed and allowed to come to room temperature. After removal of top 100 μL of medium from each well, 100 μL of the premixed Cell Titer-Glo reagent was added to each well. The plates were mixed on an orbital shaker for three minutes to induce lysis and incubated at ambient temperature for an additional five minutes to allow the signal to equilibrate. The Luminescence was read on the Wallac Plate Reader.
The results of the ability of the compounds of the invention to inhibit JAK2 activity, when tested in the above assay, are shown in the following Table 2 wherein the level of activity (i.e., the IC50) for each compound is indicated in Table 2. The compound numbers in Table 2 refers to the compounds disclosed herein as being prepared by the methods disclosed herein.

BaF3 V617F cells, sequence (O60674 whole entry V617F): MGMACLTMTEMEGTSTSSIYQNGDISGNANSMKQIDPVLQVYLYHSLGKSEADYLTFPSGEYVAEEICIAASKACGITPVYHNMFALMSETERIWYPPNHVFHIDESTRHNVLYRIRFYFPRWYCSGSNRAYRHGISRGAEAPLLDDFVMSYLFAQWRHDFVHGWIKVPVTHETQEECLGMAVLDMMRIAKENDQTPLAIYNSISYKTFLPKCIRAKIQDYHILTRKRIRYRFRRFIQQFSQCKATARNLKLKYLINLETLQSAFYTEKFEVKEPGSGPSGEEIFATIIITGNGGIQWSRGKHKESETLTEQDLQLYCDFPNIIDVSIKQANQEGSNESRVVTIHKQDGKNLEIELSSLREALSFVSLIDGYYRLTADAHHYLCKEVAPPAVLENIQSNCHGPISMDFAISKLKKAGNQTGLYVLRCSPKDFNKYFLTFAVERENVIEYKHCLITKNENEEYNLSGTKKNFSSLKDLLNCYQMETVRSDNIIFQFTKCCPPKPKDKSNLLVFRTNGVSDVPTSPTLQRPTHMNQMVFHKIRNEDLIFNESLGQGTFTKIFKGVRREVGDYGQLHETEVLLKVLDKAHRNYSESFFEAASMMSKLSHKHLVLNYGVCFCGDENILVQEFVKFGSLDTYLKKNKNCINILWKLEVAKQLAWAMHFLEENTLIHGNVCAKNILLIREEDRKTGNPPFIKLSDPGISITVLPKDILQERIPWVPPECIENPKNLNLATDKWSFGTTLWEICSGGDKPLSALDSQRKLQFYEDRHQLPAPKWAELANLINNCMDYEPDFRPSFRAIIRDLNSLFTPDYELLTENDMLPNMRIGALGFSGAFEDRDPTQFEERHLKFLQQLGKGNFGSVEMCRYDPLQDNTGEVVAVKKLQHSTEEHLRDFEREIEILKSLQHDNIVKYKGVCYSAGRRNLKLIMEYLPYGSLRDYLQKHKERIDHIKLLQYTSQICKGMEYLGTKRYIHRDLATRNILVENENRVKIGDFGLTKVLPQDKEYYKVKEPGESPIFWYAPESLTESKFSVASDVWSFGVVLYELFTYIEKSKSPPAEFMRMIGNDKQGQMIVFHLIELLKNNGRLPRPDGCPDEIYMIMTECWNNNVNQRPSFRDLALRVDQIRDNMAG

Compound | GI50 [nM]
O=C1N[C@@H]2c3cc(Nc4ncc(Cl)c(Nc5ccc(CCNS(=O)(=O)C6CC6)cc5)n4)ccc3C[C@@H]2O1 [Compound 1, 5-Chloro-N4-[4-[2-[N-(cyclopropylsulfonyl)amino]ethyl]phenyl]-N2-[(3aR,8aS)-2-oxo-3,3a,8,8a-tetrahydro-2H-indeno[1,2-d]oxazol-5-yl]-2,4-pyrimidinediamine] | 1000 to 5000
Cc1cnc(Nc2ccc3c(c2)[C@H]2NC(=O)O[C@H]2C3)nc1Nc1ccc2c(c1)N(C)C(=O)C(C)(C)O2 [Compound 2, 5-Methyl-N2-[(3aR,8aS)-2-oxo-3,3a,8,8a-tetrahydro-2H-indeno[1,2-d]oxazol-5-yl]-N4-(2,2,4-trimethyl-3-oxo-benz[1,4]oxazin-6-yl)-2,4-pyrimidinediamine] | < 250
Cc1cnc(Nc2ccc3c(c2)[C@H]2NC(=O)O[C@H]2C3)nc1Nc1ccc2c(c1)N(C)C(=O)CS2 [Compound 4, 5-Methyl-N4-(4-methyl-3-oxo-2H-benz[1,4]thiazin-6-yl)-N2-[(3aR,8aS)-2-oxo-3,3a,8,8a-tetrahydro-2H-indeno[1,2-d]oxazol-5-yl]-2,4-pyrimidinediamine] | 500 to 1000
Cc1cnc(Nc2ccc3c(c2)[C@H]2NC(=O)OC2C3)nc1Nc1ccc2c(n1)N(C)C(=O)C(C)(C)O2 (stereo partly drawn) [Compound 5, 5-Methyl-N2-[(3aR,8aS)-2-oxo-3,3a,8,8a-tetrahydro-2H-indeno[1,2-d]oxazol-5-yl]-N4-(2,2,4-trimethyl-3-oxo-5-pyrido[1,4]oxazin-6-yl)-2,4-pyrimidinediamine] | < 250
CCCN1C(=O)COc2ccc(Nc3nc(Nc4ccc5c(c4)[C@H]4NC(=O)O[C@H]4C5)ncc3C)cc21 [Compound 6, 5-Methyl-N4-(4-propyl-3-oxo-2H-benz[1,4]oxazin-6-yl)-N2-[(3aR,8aS)-2-oxo-3,3a,8,8a-tetrahydro-2H-indeno[1,2-d]oxazol-5-yl]-2,4-pyrimidinediamine] | 250 to 500
Cc1cnc(Nc2ccc3c(c2)[C@H]2NC(=O)O[C@H]2C3)nc1Nc1ccc2c(c1)N(C)C(=O)C(C)(C)S2 [Compound 7, 5-Methyl-N2-[(3aR,8aS)-2-oxo-3,3a,8,8a-tetrahydro-2H-indeno[1,2-d]oxazol-5-yl]-N4-(2,2,4-trimethyl-3-oxo-benz[1,4]thiazin-6-yl)-2,4-pyrimidinediamine] | < 250
O=C1N[C@@H]2c3cc(Nc4ncc(Cl)c(Nc5ccc(CNS(=O)(=O)C6CC6)cc5)n4)ccc3C[C@@H]2O1 [Compound 8, 5-Chloro-N4-[4-[[N-(cyclopropylsulfonyl)amino]methyl]phenyl]-N2-[(3aR,8aS)-2-oxo-3,3a,8,8a-tetrahydro-2H-indeno[1,2-d]oxazol-5-yl]-2,4-pyrimidinediamine] | < 250
Cc1cnc(Nc2ccc3c(c2)[C@@H]2NC(=O)O[C@@H]2C3)nc1Nc1ccc2c(c1)N(C)C(=O)C(C)(C)O2 [Compound 9, 5-Methyl-N2-[(3aS,8aR)-2-oxo-3,3a,8,8a-tetrahydro-2H-indeno[1,2-d]oxazol-5-yl]-N4-(2,2,4-trimethyl-3-oxo-benz[1,4]oxazin-6-yl)-2,4-pyrimidinediamine] | 250 to 500
CN1C(=O)C(C)(C)Oc2ccc(Nc3nc(Nc4ccc5c(c4)[C@@H]4NC(=O)O[C@@H]4C5)ncc3Cl)cc21 [Compound 10, 5-Chloro-N2-[(3aS,8aR)-2-oxo-3,3a,8,8a-tetrahydro-2H-indeno[1,2-d]oxazol-5-yl]-N4-(2,2,4-trimethyl-3-oxo-benz[1,4]oxazin-6-yl)-2,4-pyrimidinediamine] | < 250
CCN1C(=O)C(C)(C)Oc2ccc(Nc3nc(Nc4ccc5c(c4)[C@@H]4NC(=O)O[C@@H]4C5)ncc3C)cc21 [Compound 11, N4-(2,2-Dimethyl-4-ethyl-3-oxo-benz[1,4]oxazin-6-yl)-5-methyl-N2-[(3aS,8aR)-2-oxo-3,3a,8,8a-tetrahydro-2H-indeno[1,2-d]oxazol-5-yl]-2,4-pyrimidinediamine] | 250 to 500
CCN1C(=O)C(C)(C)Oc2ccc(Nc3nc(Nc4ccc5c(c4)[C@@H]4NC(=O)O[C@@H]4C5)ncc3Cl)cc21 [Compound 12, 5-Chloro-N4-(2,2-dimethyl-4-ethyl-3-oxo-benz[1,4]oxazin-6-yl)-N2-[(3aS,8aR)-2-oxo-3,3a,8,8a-tetrahydro-2H-indeno[1,2-d]oxazol-5-yl]-2,4-pyrimidinediamine] | 250 to 500
Cc1cnc(Nc2ccc3c(c2)[C@@H]2NC(=O)O[C@@H]2C3)nc1Nc1ccc2c(c1)NC(=O)C(C)(C)O2 [Compound 13, N4-(2,2-Dimethyl-3-oxo-4H-benz[1,4]oxazin-6-yl)-5-methyl-N2-[(3aS,8aR)-2-oxo-3,3a,8,8a-tetrahydro-2H-indeno[1,2-d]oxazol-5-yl]-2,4-pyrimidinediamine] | 1000 to 5000
CC(C)(C)NS(=O)(=O)c1cccc(Nc2nc(Nc3ccc4c(c3)[C@@H]3NC(=O)O[C@@H]3C4)ncc2Cl)c1 [Compound 14, 5-Chloro-N4-[3-[[(1,1-dimethylethyl)amino]sulfonyl]phenyl]-N2-[(3aS,8aR)-2-oxo-3,3a,8,8a-tetrahydro-2H-indeno[1,2-d]oxazol-5-yl]-2,4-pyrimidinediamine] | 500 to 1000
Cc1cnc(Nc2ccc3c(c2)[C@@H]2NC(=O)O[C@@H]2C3)nc1Nc1ccc(CNS(=O)(=O)C2CC2)cc1 [Compound 15, N4-[4-[[N-(Cyclopropylsulfonyl)amino]methyl]phenyl]-5-methyl-N2-[(3aS,8aR)-2-oxo-3,3a,8,8a-tetrahydro-2H-indeno[1,2-d]oxazol-5-yl]-2,4-pyrimidinediamine] | 1000 to 5000
O=C1N[C@H]2c3cc(Nc4ncc(Cl)c(Nc5ccc(CNS(=O)(=O)C6CC6)cc5)n4)ccc3C[C@H]2O1 [Compound 16, 5-Chloro-N4-[4-[[N-(cyclopropylsulfonyl)amino]methyl]phenyl]-N2-[(3aS,8aR)-2-oxo-3,3a,8,8a-tetrahydro-2H-indeno[1,2-d]oxazol-5-yl]-2,4-pyrimidinediamine] | 1000 to 5000
Cc1cc(CNS(=O)(=O)C2CC2)ccc1Nc1nc(Nc2ccc3c(c2)[C@@H]2NC(=O)O[C@@H]2C3)ncc1Cl [Compound 17, 5-Chloro-N4-[4-[[N-(cyclopropylsulfonyl)amino]methyl]-2-methylphenyl]-N2-[(3aS,8aR)-2-oxo-3,3a,8,8a-tetrahydro-2H-indeno[1,2-d]oxazol-5-yl]-2,4-pyrimidinediamine] | 1000 to 5000
Cc1cc(CNS(=O)(=O)C2CC2)ccc1Nc1nc(Nc2ccc3c(c2)[C@@H]2NC(=O)OC2C3)ncc1C (some centres unmarked) [Compound 18] | 1000 to 5000
O=C1N[C@H]2c3cc(Nc4ncc(Cl)c(Nc5cccc6c5CCC6)n4)ccc3CC2O1 (some centres unmarked) [Compound 19] | ≥ 5000
Cc1cnc(Nc2ccc3c(c2)[C@@H]2NC(=O)O[C@@H]2C3)nc1Nc1cccc2c1CCC2 [Compound 20, N4-(Indan-4-yl]-5-methyl-N2-[(3aS,8aR)-2-oxo-3,3a,8,8a-tetrahydro-2H-indeno[1,2-d]oxazol-5-yl]-2,4-pyrimidinediamine] | < 250
O=C1N[C@H]2c3cc(Nc4ncc(Cl)c(Nc5cccc6c5CCCC6)n4)ccc3C[C@H]2O1 [Compound 21, 5-Chloro-N2-[(3aS,8aR)-2-oxo-3,3a,8,8a-tetrahydro-2H-indeno[1,2-d]oxazol-5-yl]-N4-(5,6,7,8-tetrahydronaphthalen-1-yl)2,4-pyrimidinediamine] | 500 to 1000
Cc1cnc(Nc2ccc3c(c2)[C@@H]2NC(=O)O[C@@H]2C3)nc1Nc1cccc2c1CCCC2 [Compound 22, 5-Methyl-N2-[(3aS,8aR)-2-oxo-3,3a,8,8a-tetrahydro-2H-indeno[1,2-d]oxazol-5-yl]-N4-(5,6,7,8-tetrahydronaphthalen-1-yl)-2,4-pyrimidinediamine] | 250 to 500
O=C1N[C@H]2c3cc(Nc4ncc(Cl)c(Nc5cccc6c5OCCO6)n4)ccc3C[C@H]2O1 [Compound 23, N4-(1,4-Benzodioxan-5-yl)-5-chloro-N2-[(3aS,8aR)-2-oxo-3,3a,8,8a-tetrahydro-2H-indeno[1,2-d]oxazol-5-yl]-2,4-pyrimidinediamine] | 1000 to 5000
Cc1cnc(Nc2ccc3c(c2)[C@@H]2NC(=O)O[C@@H]2C3)nc1Nc1cccc2c1OCCO2 [Compound 24, N4-(1,4-Benzodioxan-5-yl)-5-methyl-N2-[(3aS,8aR)-2-oxo-3,3a,8,8a-tetrahydro-2H-indeno[1,2-d]oxazol-5-yl]-2,4-pyrimidinediamine] | < 250
O=C1N[C@H]2c3cc(Nc4ncc(Cl)c(Nc5cccc6c5OC(F)(F)O6)n4)ccc3C[C@H]2O1 [Compound 25, 5-Chloro-N4-(2,2-difluoro-1,3-benzodioxol-4-yl)-N2-[(3aS,8aR)-2-oxo-3,3a,8,8a-tetrahydro-2H-indeno[1,2-d]oxazol-5-yl]-2,4-pyrimidinediamine] | ≥ 5000
O=C1N[C@@H]2c3cc(Nc4ncc(F)c(Nc5ccc(OCc6ccccn6)cc5)n4)ccc3C[C@@H]2O1 [Compound 26, 5-Fluoro-N2-[(3aR,8aS)-2-oxo-3,3a,8,8a-tetrahydro-2H-indeno[1,2-d]oxazol-5-yl]-N4-[4-(pyridin-2-ylmethoxy)phenyl]-2,4-pyrimidinediamine] | 1000 to 5000
Cc1cnc(Nc2ccc3c(c2)[C@H]2NC(=O)O[C@H]2C3)nc1Nc1ccc(OCc2ccccn2)cc1 [Compound 27, 5-Methyl-N2-[(3aR,8aS)-2-oxo-3,3a,8,8a-tetrahydro-2H-indeno[1,2-d]oxazol-5-yl]-N4-[4-(pyridin-2-ylmethoxy)phenyl]-2,4-pyrimidinediamine] | 250 to 500
